Measurements taken from paper PMC8222713, “Variation of Two S3b Residues in KV4.1–4.3 Channels Underlies Their Different Modulations by Spider Toxin κ-LhTx-1” (Frontiers in Pharmacology, 2021).
Where a SMILES comes first, the peptide text is derived from it. Bridges are numbered along the chain shown (N, C = ends).

Experiments:
KV4.3 channel (rKV4.3) = target: T1, KV4.3 channel (rKV4.3) (Rattus norvegicus, UniProt Q62897); assay: Whole-cell patch clamp, KV4.3 in CHO-K1 cells; type: cell-based
T1 construct: expressed in transfected cells; host or cells: CHO-K1 (transient, co-transfected with pEGFP-N1)
T1 sequence (Q62897 1-655): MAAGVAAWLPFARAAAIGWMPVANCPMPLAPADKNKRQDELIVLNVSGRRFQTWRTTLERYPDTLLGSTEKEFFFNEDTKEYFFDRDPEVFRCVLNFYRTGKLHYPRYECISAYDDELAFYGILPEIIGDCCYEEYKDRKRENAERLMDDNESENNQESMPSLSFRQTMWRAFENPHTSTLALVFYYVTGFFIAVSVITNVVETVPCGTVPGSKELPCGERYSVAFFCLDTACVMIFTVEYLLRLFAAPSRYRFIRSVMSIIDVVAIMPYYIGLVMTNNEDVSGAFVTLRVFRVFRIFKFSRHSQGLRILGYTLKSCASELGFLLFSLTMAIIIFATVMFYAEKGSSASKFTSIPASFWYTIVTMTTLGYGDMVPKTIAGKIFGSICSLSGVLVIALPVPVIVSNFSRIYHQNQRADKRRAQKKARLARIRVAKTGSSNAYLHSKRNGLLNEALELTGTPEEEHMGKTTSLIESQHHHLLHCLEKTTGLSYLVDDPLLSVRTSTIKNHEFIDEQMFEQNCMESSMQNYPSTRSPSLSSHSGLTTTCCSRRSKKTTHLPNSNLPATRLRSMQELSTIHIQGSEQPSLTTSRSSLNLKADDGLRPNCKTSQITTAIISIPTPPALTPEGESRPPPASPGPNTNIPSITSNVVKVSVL
Protocol: (§1) The cDNA of hKV1.1, hKV1.3, rKV1.4, hKV1.5, rKV2.1, hKV3.1–3.4, mKV4.1, rKV4.2, and rKV4.3 were subcloned in the eukaryotic expression vector pCDNA3.1 or pCMV-blank. Channel mutants were made by a site-directed mutation method. Briefly, a pair of oppositely directed primers with 15 bp overlap at their 5′ ends and the designed mutation site were used to amplify the parental channel plasmid, then the PCR mix was treated with DpnI to remove the template. 10 μL digestion mix was directly used to transform 100 μL DH5α chemical competent cells. The correct mutation made by this procedure was finally confirmed by DNA sequencing. CHO-K1 cells (ATCC® CCL-61™) were grown in DMEM-F12 mixed medium (1:1) supplemented with 10% FBS and maintained in standard conditions (saturated humidity, 37°C, 5% CO2). Channel plasmid was co-transfected with pEGFP-N1 (encodes the green fluoresence protein) into CHO-K1 cells using lipofectamine 2000 following the manufacturer’s instructions. 4–6 h after transfection, cells were seeded onto poly-lysine (PLL) coated coverslips, and 24–36 h later, transfected cells were ready for patch-clamp analysis. It should be note that KV4.2 and its mutants were also co-expressed with hKChIP1 to promote their functional expressions.
(§2) Whole-cell patch clamp recording was performed in an electrophysiology platform equipped with MultiClamp 700B amplifier and Axon Digidata 1550 AD/DA convertor (Axon Instruments, Irvine, CA, United States). Data were acquired using the pClamp software (Axon Instruments, Irvine, CA, United States). All experiments were performed at room temperature. The bath solution contains (in mM): 140 NaCl, 5 KCl, 1 MgCl2, 2 CaCl2, 10 glucose, and 10 HEPES (pH = 7.3). The pipette solution contains (in mM): 140 KCl, 2.5 MgCl2, 11 EGTA, and 10 HEPES (pH = 7.3). Series resistance was kept below 10 MΩ and compensated to 80%. The concentration–response curves were fitted by a Hill logistic equation to estimate the potency (IC50) of the toxin. The whole cell conductance (G) at each depolarizing voltage (V) was determined using the equation: G = I/(V−Vrev), where I and Vrev represents the current amplitude and the reversal potential, respectively. In the present study, Vrev for K^+ current is determined to be −85.61 mV using the Nernst equation. G-V curve was obtained by plotting the normalized G as a function of V and fitted by the Boltzmann equation: y = 1/{1 + exp [(Va−V)/K]}, in which Va, V, and K represents half-maximum activation voltage, test voltage and slope factor, respectively. The steady-state fast inactivation of KV4 channels was measured using a classical two-pulses protocol: cell was held at −120 mV, and a train of conditional voltages (−120–40 mV, in 10 mV increment, 1,000 ms) were applied to induce channel inactivation, followed by a +60 mV test pulse (300 ms) to assess the proportion of non-inactivated channels; the sweep interval was set to 10 s. Currents at the test pulse (I) were normalized to the maximum value (Imax) and plotted as a function of the conditional voltage (V), the curve was fitted by the Boltzmann equation: I/Imax = A + (1−A)/{1 + exp [(V−Vh)/K]}, where Vh is the half-maximum inactivation voltage, A represents the minimum channel availability, and K is the slope factor. Gating currents of KV4.1–4.3 channels were measured as previously reported ([Tilley et al., 2019]). Briefly, the ionic pore currents were abolished by replacing K^+ with NMDG^+ in the pipette solution, and 10 µM Cs^+ was present in the bath solution to occupy the selectivity filter of KV channels to prevent decay of the gating currents during recording.
(§3) Data were presented as MEAN ± SEM, n represents the number of separate experimental cells. Data were analyzed using the software Clampfit 10.5 (Axon Instruments, Irvine, CA, United States), Graphpad Prism 5.01 (GraphPad Software, La Jolla, CA, United States) and Excel 2010 (Microsoft Corporation, Redmond, WA, United States). […]

KV4.3/T277P mutant = assay: Whole-cell patch clamp, KV4.3/T277P in CHO-K1 cells; type: cell-based, rat
Protocol: as §1, §2, §3

KV4.1/V281M mutant = assay: Whole-cell patch clamp, KV4.1/V281M in CHO-K1 cells; type: cell-based, mouse; conditions: +30 mV, n = 5
Protocol: The cDNA of hKV1.1, hKV1.3, rKV1.4, hKV1.5, rKV2.1, hKV3.1–3.4, mKV4.1, rKV4.2, and rKV4.3 were subcloned in the eukaryotic expression vector pCDNA3.1 or pCMV-blank. Channel mutants were made by a site-directed mutation method. Briefly, a pair of oppositely directed primers with 15 bp overlap at their 5′ ends and the designed mutation site were used to amplify the parental channel plasmid, then the PCR mix was treated with DpnI to remove the template. 10 μL digestion mix was directly used to transform 100 μL DH5α chemical competent cells. The correct mutation made by this procedure was finally confirmed by DNA sequencing. […] 4–6 h after transfection, cells were seeded onto poly-lysine (PLL) coated coverslips, and 24–36 h later, transfected cells were ready for patch-clamp analysis. […]
Whole-cell patch clamp recording was performed in an electrophysiology platform equipped with MultiClamp 700B amplifier and Axon Digidata 1550 AD/DA convertor (Axon Instruments, Irvine, CA, United States). […] The whole cell conductance (G) at each depolarizing voltage (V) was determined using the equation: G = I/(V−Vrev), where I and Vrev represents the current amplitude and the reversal potential, respectively. In the present study, Vrev for K^+ current is determined to be −85.61 mV using the Nernst equation. […] Gating currents of KV4.1–4.3 channels were measured as previously reported ([Tilley et al., 2019]). […]

[1] = 10 μM κ-LhTx-1, KV4.3, G-V, mean ± SEM, n = 10
[2] = 10 μM κ-LhTx-1, KV4.3, two-pulse protocol, mean ± SEM, n = 7
[3] = 10 μM κ-LhTx-1, G-V, mean ± SEM, n = 6
[4] = 10 μM κ-LhTx-1, two-pulse protocol, mean ± SEM, n = 6

Question: What does the source list for `CC[C@H](C)[C@@H]1NC(=O)[C@H](CCC(N)=O)NC(=O)[C@@H]2CSSC[C@@H]3NC(=O)[C@H](CC(C)C)NC(=O)[C@H](CC(N)=O)NC(=O)[C@H](CCSC)NC(=O)[C@H](Cc4c[nH]c5ccccc45)NC(=O)[C@H](CO)NC(=O)[C@H](C)NC(=O)[C@@H](NC(=O)[C@H](CCC(=O)O)NC(=O)[C@H](CCC(N)=O)NC(=O)[C@H](C)NC(=O)[C@H](CC(=O)O)NC(=O)[C@@H](N)CCC(=O)O)CSSC[C@H](NC(=O)[C@H](CSSC[C@@H](C(=O)N[C@@H](CCCCN)C(=O)N[C@@H](Cc4ccc(O)cc4)C(=O)N[C@@H](CCCCN)C(=O)N[C@@H](CC(C)C)C(N)=O)NC(=O)[C@H](Cc4c[nH]c5ccccc45)NC1=O)NC(=O)[C@H](CCCCN)NC(=O)[C@H](CCCCN)NC(=O)[C@H](CCC(=O)O)NC(=O)CNC3=O)C(=O)N[C@@H](CCC(=O)O)C(=O)NCC(=O)N[C@@H](Cc1ccc(O)cc1)C(=O)N[C@@H](C(C)C)C(=O)N2` [κ-LhTx-1] (H-EDAQECASWMNLCGEKKCCEGYVCQIWCKYKL-NH2; disulfide 6-19, 13-24, 18-28 (inferred); N-terminus and C-terminus assumed)?
Answer: Va (steady-state activation) (KV4.3 channel (rKV4.3); [1]): 46.86 ± 1.52 mV; k, slope factor (steady-state activation) (KV4.3 channel (rKV4.3); [1]): 20.45 ± 0.30 mV; Vh (steady-state inactivation) (KV4.3 channel (rKV4.3); [2]): -30.87 ± 2.23 mV; k, slope factor (steady-state inactivation) (KV4.3 channel (rKV4.3); [2]): 6.21 ± 0.43 mV; reversibility of inhibition (KV4.3 channel (rKV4.3); KV4.3): in a reversible manner; voltage-dependence of inhibition (KV4.3 channel (rKV4.3); KV4.3, 10 µM, inhibition ratio at each depolarizing voltage, n = 5–8): decreased quickly with the increment of the depolarizing voltage; I-V relationship shift (KV4.3 channel (rKV4.3); KV4.3, 10 µM, n = 5–8): only a small shift; current inhibition at Va (KV4.3 channel (rKV4.3); KV4.3 at Va depolarizing voltage): almost fully inhibited; ∆Va (steady-state activation) (KV4.3 channel (rKV4.3); Va shift by 10 μM κ-LhTx-1 vs control, KV4.3, mean ± SEM): 39.88 ± 2.19 mV; ∆Vh (steady-state inactivation) (KV4.3 channel (rKV4.3); Vh shift by 10 μM κ-LhTx-1 vs control, KV4.3, mean ± SEM): 14.83 ± 3.34 mV; Va (steady-state activation) (KV4.3/T277P mutant; [3]): 49.17 ± 0.88 mV; k, slope factor (steady-state activation) (KV4.3/T277P mutant; [3]): 22.21 ± 1.64 mV; Vh (steady-state inactivation) (KV4.3/T277P mutant; [4]): -35.46 ± 1.68 mV; k, slope factor (steady-state inactivation) (KV4.3/T277P mutant; [4]): 8.50 ± 0.42 mV; inhi%(min) vs wild-type KV4.3 (KV4.3/T277P mutant; 10 μM, +100 mV): significantly elevated inhi%(min) value; ∆Va (steady-state activation) (KV4.3/T277P mutant; Va shift by 10 μM κ-LhTx-1 vs control, mean ± SEM): 40.47 ± 2.79 mV; ∆Vh (steady-state inactivation) (KV4.3/T277P mutant; Vh shift by 10 μM κ-LhTx-1 vs control, mean ± SEM): 11.63 ± 2.17 mV; potency vs wild-type KV4.1 (KV4.1/V281M mutant): only slightly reduced κ-LhTx-1 potency
